Tests used:
[1] = molecular target: GDP-bound HRAS wild-type protein (Homo sapiens, UniProt P01112); assay: Binding to HRAS by surface plasmon resonance (SPR), Single Cycle Kinetics; details: SPR; for HRAS/KRAS (ratio of KD value for GDP-bound HRAS wild-type protein to KD value for KRAS): KD ratio class
[2] = molecular target: GDP-bound NRAS wild-type protein (Homo sapiens, UniProt P01111); assay: Binding to NRAS by surface plasmon resonance (SPR), Single Cycle Kinetics; details: SPR; for NRAS/KRAS (ratio of KD value for GDP-bound NRAS wild-type protein to KD value for KRAS): KD ratio class
Sequence of GDP-bound NRAS wild-type protein (P01111 whole entry): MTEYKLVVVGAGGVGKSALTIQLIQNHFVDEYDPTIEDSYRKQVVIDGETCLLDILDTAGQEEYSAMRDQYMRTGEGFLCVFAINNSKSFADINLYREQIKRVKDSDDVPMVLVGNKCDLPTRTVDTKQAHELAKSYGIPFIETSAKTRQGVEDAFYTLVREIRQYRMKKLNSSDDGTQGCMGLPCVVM

Sequence of GDP-bound HRAS wild-type protein (P01112 whole entry): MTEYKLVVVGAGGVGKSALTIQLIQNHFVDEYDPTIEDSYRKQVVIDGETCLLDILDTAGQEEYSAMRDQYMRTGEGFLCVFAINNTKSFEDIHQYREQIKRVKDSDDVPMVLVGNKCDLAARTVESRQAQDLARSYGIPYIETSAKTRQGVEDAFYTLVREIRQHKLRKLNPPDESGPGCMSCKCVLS

SMILES	HRAS/KRAS (ratio of KD value for GDP-bound HRAS wild-type protein to KD value for KRAS) [1]	NRAS/KRAS (ratio of KD value for GDP-bound NRAS wild-type protein to KD value for KRAS) [2]	HRAS/KRAS (ratio of KD value for HRAS to KD value for KRAS) ([1]; KD ratio, GDP-bound HRAS wild-type vs GDP-bound KRAS wild-type)	NRAS/KRAS (ratio of KD value for NRAS to KD value for KRAS) ([2]; KD ratio, GDP-bound NRAS wild-type vs GDP-bound KRAS wild-type)
CCO[C@@H]1C[C@H]2C(=O)NC3(CCC3)C(=O)N(C)[C@@H](C3CCCC3)C(=O)N(C)[C@H](C(=O)N(C)C)CC(=O)N(C)[C@@H](CC)C(=O)N[C@@H]([C@@H](C)CC)C(=O)N(C)CC(=O)N(C)[C@H]3CC/C=C(/C)CN(C3=O)[C@@H](Cc3ccc(C(F)(F)F)cc3)C(=O)N(C)CC(=O)N[C@@H](CCc3cc(F)c(C(F)(F)F)c(F)c3)C(=O)N2C1 [PP1334]	B (a compound having 3 or more and less than 10 is denoted as B)	B (a compound having 3 or more and less than 10 is denoted as B)	–	–
CCO[C@@H]1C[C@H]2C(=O)NC3(CCC3)C(=O)N(C)[C@@H](C3CCCC3)C(=O)N(C)[C@H](C(=O)N3CCOCC3)CC(=O)N(C)[C@@H](CC)C(=O)N[C@@H]([C@@H](C)CC)C(=O)N(C)CC(=O)N(C)[C@H]3CC/C=C(/C)CN(C3=O)[C@@H](Cc3ccc(C(F)(F)F)cc3)C(=O)N(C)CC(=O)N[C@@H](CCc3cc(F)c(C(F)(F)F)c(F)c3)C(=O)N2C1 [PP1335]	B (a compound having 3 or more and less than 10 is denoted as B)	B (a compound having 3 or more and less than 10 is denoted as B)	–	–
CCCN(C)C(=O)[C@@H]1CC(=O)N(C)[C@@H](CC(C)C)C(=O)N[C@@H]([C@@H](C)CC)C(=O)N(C)CC(=O)N(C)[C@H]2C/C=C\CCN(C2=O)[C@@H](Cc2ccc(C(F)(F)F)cc2)C(=O)N(C)CC(=O)N[C@@H](CCc2cc(F)c(C(F)(F)F)c(F)c2)C(=O)N2C[C@H](OCC)C[C@H]2C(=O)NC2(CCC2)C(=O)N(C)[C@@H](C2CCCC2)C(=O)N1C [PP1387]	B (a compound having 3 or more and less than 10 is denoted as B)	A (a compound having 10 or more and less than 20 is denoted as A)	–	–
CCCN(C)C(=O)[C@@H]1CC(=O)N(C)[C@@H](CC2CC2)C(=O)N[C@@H]([C@@H](C)CC)C(=O)N(C)CC(=O)N(C)[C@H]2C/C=C\CCN(C2=O)[C@@H](Cc2ccc(C(F)(F)F)cc2)C(=O)N(C)CC(=O)N[C@@H](CCc2cc(F)c(C(F)(F)F)c(F)c2)C(=O)N2C[C@H](OCC)C[C@H]2C(=O)NC2(CCC2)C(=O)N(C)[C@@H](C2CCCC2)C(=O)N1C [PP1388]	B (a compound having 3 or more and less than 10 is denoted as B)	A (a compound having 10 or more and less than 20 is denoted as A)	–	–
CCC[C@H]1C(=O)N[C@@H]([C@@H](C)CC)C(=O)N(C)CC(=O)N(C)[C@H]2C/C=C\CCN(C2=O)[C@@H](Cc2ccc(C(F)(F)F)cc2)C(=O)N(C)CC(=O)N[C@@H](CCc2cc(F)c(C(F)(F)F)c(F)c2)C(=O)N2C[C@H](OCC)C[C@H]2C(=O)NC2(CCC2)C(=O)N(C)[C@@H](C2CCCC2)C(=O)N(C)[C@H](C(=O)N(C)CCC)CC(=O)N1C [PP1389]	A (a compound having 10 or more and less than 20 is denoted as A)	AA (a compound having 20 or more is denoted as AA)	–	–
CC[C@H](C)[C@@H]1NC(=O)[C@H](CC2CC2)N(C)C(=O)C[C@@H](C(=O)N(C)C)N(C)C(=O)[C@H](C2CCCC2)N(C)C(=O)C2(CCC2)NC(=O)[C@@H]2[C@@H](OCC(F)F)CCN2C(=O)[C@H](CCc2cc(F)c(C(F)(F)F)c(F)c2)NC(=O)CN(C)C(=O)[C@H](Cc2ccc(C(F)(F)F)cc2)N2CC/C=C\C[C@@H](C2=O)N(C)C(=O)CN(C)C1=O [PP1533]	A (a compound having 10 or more and less than 20 is denoted as A)	AA (a compound having 20 or more is denoted as AA)	–	–
CC[C@H](C)[C@@H]1NC(=O)[C@H](CC(C)C)N(C)C(=O)C[C@@H](C(=O)N(C)C)N(C)C(=O)[C@H](C2CCCC2)N(C)C(=O)C2(CCC2)NC(=O)[C@@H]2[C@@H](OCC(F)F)CCN2C(=O)[C@H](CCc2cc(F)c(C(F)(F)F)c(F)c2)NC(=O)CN(C)C(=O)[C@H](Cc2ccc(C(F)(F)F)cc2)N2CC/C=C\C[C@@H](C2=O)N(C)C(=O)CN(C)C1=O [PP1534]	A (a compound having 10 or more and less than 20 is denoted as A)	AA (a compound having 20 or more is denoted as AA)	–	–
CC[C@H](C)[C@@H]1NC(=O)[C@H](CC2CC2)N(C)C(=O)C[C@@H](C(=O)N(C)CC)N(C)C(=O)[C@H](C2CCCC2)N(C)C(=O)C2(CCC2)NC(=O)[C@@H]2C[C@H](C)CN2C(=O)[C@H](CCc2cc(F)c(C(F)(F)F)c(F)c2)NC(=O)CN(C)C(=O)[C@H](Cc2ccc(C(F)(F)F)cc2)N2CC/C=C\C[C@@H](C2=O)N(C)C(=O)CN(C)C1=O [PP1537]	A (a compound having 10 or more and less than 20 is denoted as A)	AA (a compound having 20 or more is denoted as AA)	–	–
CC[C@H](C)[C@@H]1NC(=O)[C@H](CC2CC2)N(C)C(=O)C[C@@H](C(=O)N(C)CC)N(C)C(=O)[C@H](C2CCCC2)N(C)C(=O)C2(CCC2)NC(=O)[C@@H]2CC(F)(F)CN2C(=O)[C@H](CCc2cc(F)c(C(F)(F)F)c(F)c2)NC(=O)CN(C)C(=O)[C@H](Cc2ccc(C(F)(F)F)cc2)N2CC/C=C\C[C@@H](C2=O)N(C)C(=O)CN(C)C1=O [PP1538]	B (a compound having 3 or more and less than 10 is denoted as B)	A (a compound having 10 or more and less than 20 is denoted as A)	–	–
CCO[C@@H]1C[C@H]2C(=O)NC3(CCC3)C(=O)N(C)[C@@H](C3CCCC3)C(=O)N(C)[C@H](C(=O)N(C)CC)CC(=O)N(C)[C@@H](CC)C(=O)N[C@@H]([C@@H](C)CC)C(=O)N(C)CC(=O)N(C)[C@H]3C/C=C\CCN(C3=O)[C@@H](CC3CCCCC3)C(=O)N(C)CC(=O)N[C@@H](CCc3cc(F)c(C(F)(F)F)c(F)c3)C(=O)N2C1 [PP1552]	A (a compound having 10 or more and less than 20 is denoted as A)	A (a compound having 10 or more and less than 20 is denoted as A)	–	–
CCO[C@@H]1C[C@H]2C(=O)NC3(CCC3)C(=O)N(C)[C@@H](C3CCCC3)C(=O)N(C)[C@H](C(=O)N(C)CC)CC(=O)N(C)[C@@H](CC)C(=O)N[C@@H]([C@@H](C)CC)C(=O)N(C)CC(=O)N(C)[C@H]3C/C=C\CCN(C3=O)[C@@H](CC3CCC(F)(F)CC3)C(=O)N(C)CC(=O)N[C@@H](CCc3cc(F)c(C(F)(F)F)c(F)c3)C(=O)N2C1 [PP1553]	A (a compound having 10 or more and less than 20 is denoted as A)	A (a compound having 10 or more and less than 20 is denoted as A)	–	–
C=CCCCCN(C)C(=O)[C@@H]1CC(=O)N(C)[C@@H](CC2CC2)C(=O)N[C@@H](CC=C)C(=O)N(C)CC(=O)N(C)[C@H]2C/C=C\CCN(C2=O)[C@@H](Cc2ccc(C(F)(F)F)cc2)C(=O)N(C)CC(=O)N[C@@H](CCc2cc(F)c(C(F)(F)F)c(F)c2)C(=O)N2C[C@H](OCC)C[C@H]2C(=O)NC2(CCC2)C(=O)N(C)[C@@H](C2CCCC2)C(=O)N1C [PP1554]	A (a compound having 10 or more and less than 20 is denoted as A)	A (a compound having 10 or more and less than 20 is denoted as A)	–	–
C=CC[C@@H]1NC(=O)[C@H](CC2CC2)N(C)C(=O)C[C@@H](C(=O)N(C)CC=C)N(C)C(=O)[C@H](C2CCCC2)N(C)C(=O)C2(CCC2)NC(=O)[C@@H]2C[C@@H](OCC)CN2C(=O)[C@H](CCc2cc(F)c(C(F)(F)F)c(F)c2)NC(=O)CN(C)C(=O)[C@H](Cc2ccc(C(F)(F)F)cc2)N2CC/C=C\C[C@@H](C2=O)N(C)C(=O)CN(C)C1=O [PP1557]	A (a compound having 10 or more and less than 20 is denoted as A)	A (a compound having 10 or more and less than 20 is denoted as A)	–	–
CCO[C@@H]1C[C@H]2C(=O)NC3(CCCC3)C(=O)N(C)[C@@H](C3CCCC3)C(=O)N(C)[C@H](C(=O)N(C)CC)CC(=O)N(C)[C@@H](CC(C)C)C(=O)N[C@@H]([C@@H](C)CC)C(=O)N(C)CC(=O)N(C)[C@H]3C/C=C\CCN(C3=O)[C@@H](Cc3ccc(C(F)(F)F)cc3)C(=O)N(C)CC(=O)N[C@@H](CCc3cc(F)c(C(F)(F)F)c(F)c3)C(=O)N2C1 [PP1574, (2S,8S,12R,14S,20S,23S,27S,30S,36S,38Z)-20-cyclopentyl-8-[2-[3,5-difluoro-4-(trifluoromethyl)phenyl]ethyl]-12-ethoxy-N-ethyl-27-isobutyl-N,4,19,22,26,32,35-heptamethyl-30-[(1S)-1-methylpropyl]-3,6,9,15,18,21,25,28,31,34,42-undecaoxo-2-[[4-(trifluoromethyl)phenyl]methyl]spiro[1,4,7,10,16,19,22,26,29,32,35-undecazatricyclo[34.5.1.0^10,14]dotetracont-38-ene-17,1′-cyclopentane]-23-carboxamide]	A (a compound having 10 or more and less than 20 is denoted as A)	A (a compound having 10 or more and less than 20 is denoted as A)	–	–
CCO[C@@H]1C[C@H]2C(=O)NC3(CC(F)(F)C3)C(=O)N(C)[C@@H](C(CC)CC)C(=O)N3CCC[C@@H]3CC(=O)N(C)[C@@H](CC)C(=O)N[C@@H]([C@@H](C)CC)C(=O)N(C)CC(=O)N(C)[C@H]3C/C=C\CCN(C3=O)[C@@H](Cc3ccc(C(F)(F)F)cc3)C(=O)N(C)CC(=O)N[C@@H](CCc3cc(F)c(C(F)(F)F)c(F)c3)C(=O)N2C1 [PP1608]	–	–	A (a compound having 10 or more and less than 20 is denoted as A)	A (a compound having 10 or more and less than 20 is denoted as A)

Reference: patent US20250230193A1, “CYCLIC COMPOUND HAVING SELECTIVE KRAS INHIBITORY EFFECT ON HRAS AND NRAS” (CHUGAI SEIYAKU KABUSHIKI KAISHA, priority 2022, published 2025)
